Consider 1 sequence from US7531509B2, “Papillosin antimicrobial peptide, a gene coding said peptide, a vector, a transformed organism and a compound containing said organism” (Centre National de la Recherche Scientifique—CNRS, priority 2003, dated 2009).

No end group written: not given here.

One assay relates to M. luteus. The format is cell-based. The settings on record: 18 h. As for the experimental part: (§1) Complementary tests were carried out to determine the spectrum of activity of papillosin. The minimal bactericidal concentration (MBC) for each bacterial strain tested is determined as follows: The peptide is placed in a solution containing 0.01% acetic acid and 0.2% bovine serum albumin (BSA), then, serial dilutions of 2 2 are realized in the same 0.01% solution of acetic acid and 0.2% BSA. 10 μl of each dilution are incubated in sterile 96-well plates (Becton Dickinson, USA, ref: 18572) in the presence of 100 μl of a bacterial suspension brought to an optical density of 0.001 at 600 nm in the Mueller Hinton environment (MLHB, SIGMA, ref: M-9677).
(§2) The bacterial growth is monitored after 18 hours of incubation under agitation. The MBC is determined by spreading out the content of the first three wells in which no bacterial growth was observed. This spreading out was carried out on Petri dishes on which an agar was poured prepared from the Mueller Hinton environment. These dishes were then incubated 18 hours. The MBC corresponds to the lowest concentration of peptide for which no bacterial colony was observed on the incubated dishes.

Assay [1] concerns gram-positive and gram-negative bacteria. Kind of assay: Spectrum of antibacterial activity (summary). The settings on record: on gram-positive and gram-negative bacteria. The format is cell-based. How it is done: as §1, §2

“GFWKKVGSAAWGGVKAAAKGAAVGGLNALAKHIQ [papillosin]”: in the assay on M. luteus, the MBC was in the range of 0.125 to 0.25 µM. The bacteriolytic activity entry in assay [1] is recorded as “powerful bacteriolytic activity”.

As a reminder, the MBC is the smallest concentration meeting the test's criterion for killing. Low readings indicate greater bactericidal potency, high ones weaker bactericidal potency.
